Reference: ChEMBL document CHEMBL2396549, “The discovery of BMS-457, a potent and selective CCR1 antagonist” (Bioorg Med Chem Lett, 2013)
Values belong to the compound of their own block, whether it stands above or below them.

Legend:
[1] = molecular target: T1, C-C chemokine receptor type 1 (Homo sapiens, UniProt P32246); assay: Binding affinity to human CCR1
T1 sequence (P32246 whole entry): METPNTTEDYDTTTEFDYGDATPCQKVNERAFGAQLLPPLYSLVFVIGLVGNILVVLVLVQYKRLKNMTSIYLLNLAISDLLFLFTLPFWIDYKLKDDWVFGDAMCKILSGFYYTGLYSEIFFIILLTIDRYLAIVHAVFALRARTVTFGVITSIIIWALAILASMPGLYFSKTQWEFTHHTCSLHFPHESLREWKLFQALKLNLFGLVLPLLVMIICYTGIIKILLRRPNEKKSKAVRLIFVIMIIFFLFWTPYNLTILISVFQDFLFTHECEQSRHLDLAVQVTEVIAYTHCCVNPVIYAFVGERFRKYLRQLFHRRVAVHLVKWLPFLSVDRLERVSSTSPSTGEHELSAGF

[2] = molecular target: T2, Nuclear receptor subfamily 1 group I member 2 (Homo sapiens, UniProt O75469); assay: Induction of PXR (unknown origin); conditions: human
T2 sequence (O75469 whole entry): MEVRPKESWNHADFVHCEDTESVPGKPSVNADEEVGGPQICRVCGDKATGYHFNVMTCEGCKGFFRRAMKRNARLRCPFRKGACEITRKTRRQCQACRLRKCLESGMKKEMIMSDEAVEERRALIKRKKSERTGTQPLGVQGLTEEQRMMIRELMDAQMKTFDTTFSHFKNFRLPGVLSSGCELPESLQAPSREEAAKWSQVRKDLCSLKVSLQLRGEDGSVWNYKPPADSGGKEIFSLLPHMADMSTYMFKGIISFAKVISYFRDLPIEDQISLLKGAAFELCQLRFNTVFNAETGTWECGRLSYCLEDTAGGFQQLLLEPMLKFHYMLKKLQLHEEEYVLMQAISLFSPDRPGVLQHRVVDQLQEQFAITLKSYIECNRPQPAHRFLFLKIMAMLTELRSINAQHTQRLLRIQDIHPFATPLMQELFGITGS

Homo sapiens [3] = species: Homo sapiens; assay: Inhibition of calcium channel (unknown origin) at 10 uM
Homo sapiens [4] = species: Homo sapiens; assay: Inhibition of sodium channel (unknown origin) at 10 uM
[5] = Metabolic stability in monkey liver microsomes assessed as compound remaining; assay type: ADME, Macaca mulatta, Microsome; conditions: rhesus monkey
Liver = assay: Metabolic stability in mouse liver microsomes assessed as compound remaining; assay type: ADME, Microsome
Liver microsomes [6] = assay: Metabolic stability in human liver microsomes assessed as compound remaining; assay type: ADME, Microsome
Liver microsomes [7] = assay: Metabolic stability in rat liver microsomes assessed as compound remaining; assay type: ADME, Microsome

SMILES: CC(C)[C@@H](NC(=O)[C@H]1CC[C@@H](O)C1)C(=O)N1CC[C@](O)(c2ccc(Cl)cc2)C(C)(C)C1 (mixture of isomers)
EC20 [2]: 1800 nM | EC60 [2]: 7400 nM | inhibition (Homo sapiens [3]): 9% | inhibition (Homo sapiens [4]): 19% | Stability [5]: 21% | Stability (Liver): 65% | IC50 [1]: 1.6 nM | Stability (Liver microsomes [6]): 69% | Stability (Liver microsomes [7]): 67%

SMILES: CC(C)[C@@H](NC(=O)c1cccc(C(=O)O)c1)C(=O)N1CC[C@](O)(c2ccc(Cl)cc2)C(C)(C)C1
EC20 [2]: > 50000 nM | EC60 [2]: > 50000 nM | inhibition (Homo sapiens [3]): 0% | inhibition (Homo sapiens [4]): 3% | Stability [5]: 100% | Stability (Liver): 100% | IC50 [1]: 7.1 nM | Stability (Liver microsomes [6]): 100% | Stability (Liver microsomes [7]): 97%

SMILES: CC(C)[C@@H](NC(=O)c1ccccc1Cl)C(=O)N1CC[C@](O)(c2ccc(Cl)cc2)C(C)(C)C1
IC50 [1]: 6.6 nM

SMILES: CC(C)[C@@H](NC(=O)[C@@H]1CCC[C@H]1O)C(=O)N1CC[C@](O)(c2ccc(Cl)cc2)C(C)(C)C1 (mixture of isomers)
IC50 [1]: 20 nM

SMILES: CC(C)[C@@H](NC(=O)c1ccccn1)C(=O)N1CC[C@](O)(c2ccc(Cl)cc2)C(C)(C)C1
IC50 [1]: 15 nM

SMILES: CC(C)[C@@H](NC(=O)C1CCCC1)C(=O)N1CC[C@](O)(c2ccc(Cl)cc2)C(C)(C)C1
EC20 [2]: 400 nM | EC60 [2]: 1400 nM | inhibition (Homo sapiens [3]): 50% | inhibition (Homo sapiens [4]): 52% | Stability [5]: 4% | Stability (Liver): 26% | IC50 [1]: 1.4 nM | Stability (Liver microsomes [6]): 47% | Stability (Liver microsomes [7]): 50%

SMILES: CC(C)[C@@H](NC(=O)C1CCC1)C(=O)N1CC[C@](O)(c2ccc(Cl)cc2)C(C)(C)C1
IC50 [1]: 1.8 nM

SMILES: CC(C)[C@@H](NC(=O)c1cccc(-c2ccccc2NC(N)=O)c1)C(=O)N1CCC(c2ccc(Cl)cc2)CC1
IC50 [1]: 6.8 nM

SMILES: CC(C)[C@@H](NC(=O)[C@@H]1CC[C@@H](N)C1)C(=O)N1CC[C@](O)(c2ccc(Cl)cc2)C(C)(C)C1 (mixture of isomers)
IC50 [1]: 341 nM

SMILES: CC(C)[C@@H](NC(=O)CCCc1ccccc1)C(=O)N1CC[C@](O)(c2ccc(Cl)cc2)C(C)(C)C1
IC50 [1]: 1.7 nM

SMILES: CC(C)CC(=O)N[C@@H](C(=O)N1CC[C@](O)(c2ccc(Cl)cc2)C(C)(C)C1)C(C)C
IC50 [1]: 2.9 nM

SMILES: CC(C)[C@@H](NC(=O)C1CCCC1)C(=O)N1CCN(c2ccc(Cl)cc2)C(C)(C)C1
IC50 [1]: 4.1 nM

More lines, in order of falling IC50 [1], values ahead:

IC50 [1]: 2940 nM
SMILES: CC(C)[C@@H](NC(=O)c1ccccc1C(=O)O)C(=O)N1CC[C@](O)(c2ccc(Cl)cc2)C(C)(C)C1

IC50 [1]: 208 nM
SMILES: CC(C)[C@@H](NC(=O)c1ccc(Cl)cc1)C(=O)N1CCC(O)(c2ccc(Cl)cc2)C2(CCCC2)C1 (mixture of isomers)

IC50 [1]: 196 nM
SMILES: CC(C)[C@@H](NC(=O)c1ccc(Cl)cc1)C(=O)N1CC[C@](N)(c2ccc(Cl)cc2)C(C)(C)C1

IC50 [1]: 40 nM
SMILES: CC(C)[C@@H](NC(=O)c1cccc(S(N)(=O)=O)c1)C(=O)N1CCC(c2ccc(Cl)cc2)CC1

EC20 [2]: 1100 nM | EC60 [2]: 2900 nM | inhibition (Homo sapiens [3]): 64% | inhibition (Homo sapiens [4]): 48% | IC50 [1]: 18 nM
SMILES: CC(C)[C@@H](NC(=O)c1ccccc1)C(=O)N1CC[C@](O)(c2ccc(Cl)cc2)C(C)(C)C1

Stability (Liver): 96% | IC50 [1]: 17 nM | Stability (Liver microsomes [6]): 97% | Stability (Liver microsomes [7]): 84%
SMILES: CC(C)[C@@H](NC(=O)[C@@H]1CCC[C@H]1N)C(=O)N1CC[C@](O)(c2ccc(Cl)cc2)C(C)(C)C1

IC50 [1]: 9.4 nM
SMILES: CC(C)[C@@H](NC(=O)Cc1ccncc1)C(=O)N1CCC(c2ccc(Cl)cc2)CC1

IC50 [1]: 7.6 nM
SMILES: CC(C)[C@@H](NC(=O)c1ccncc1)C(=O)N1CC[C@](O)(c2ccc(Cl)cc2)C(C)(C)C1

IC50 [1]: 3.7 nM
SMILES: CC(C)[C@@H](NC(=O)c1cccnc1)C(=O)N1CC[C@H](c2ccc(Cl)cc2)C(C)(C)C1

IC50 [1]: 3 nM
SMILES: CC(C)[C@@H](NC(=O)C1CC1)C(=O)N1CC[C@](O)(c2ccc(Cl)cc2)C(C)(C)C1

IC50 [1]: 2.9 nM
SMILES: CC(C)[C@@H](NC(=O)c1ccc(F)c(O)c1)C(=O)N1CC[C@](O)(c2ccc(Cl)cc2)C(C)(C)C1

IC50 [1]: 2.6 nM
SMILES: CC(C)[C@@H](NC(=O)CC12CC3CC(CC(C3)C1)C2)C(=O)N1CC[C@](O)(c2ccc(Cl)cc2)C(C)(C)C1

IC50 [1]: 2.3 nM
SMILES: CC(C)[C@@H](NC(=O)C1CCCC1(O)CCN1CCOCC1)C(=O)N1CC[C@](O)(c2ccc(Cl)cc2)C(C)(C)C1 (some centres not stated)

IC50 [1]: 1.2 nM
SMILES: CC(C)[C@@H](NC(=O)Cc1ccncc1)C(=O)N1CC[C@](O)(c2ccc(Cl)cc2)C(C)(C)C1
